Results: patent US20220016215A1, “GIP RECEPTOR AGONIST PEPTIDE COMPOUNDS AND USES THEREOF” (TAKEDA PHAARMACEUTICAL COMPANY LIMITED, priority 2018, published 2022)
Like-named read-outs stand apart in the source and are kept apart here.

What was measured:
human GLP-1R = human GLP-1R (Homo sapiens, UniProt P43220); test: Agonist activity on human GLP-1R, CRE-luciferase reporter assay (increase in intracellular cAMP as indicator); assay type: cell-based; set-up: expressed in transfected cells; details: hGLP-1R/CRE-luc/CHO-K1 cells, 4 h incubation
From the text: The human GIPR gene having an identical sequence to Genebank Accession No. U39231 is cloned into a pMSRα-neo vector to prepare hGIPR/pMSRα-neo.
(3) Construction of Reporter Plasmid
Four copies of a cAMP responsive sequence and a Zeocin resistance gene are transferred to pGL3(R2.2)-Basic Vector (Promega) to construct a Cre-luc(Zeo) reporter plasmid.
(5) Construction of Expression Plasmid of Human GLP-1R Gene
The human GLP-1R gene having an identical sequence to Genebank Accession No. NM_002062 is cloned into a pIRESneo3 vector to prepare hGLP-1/pIRESneo3.
(6) Transfer of Human GLP-1R Gene and Reporter Plasmid to CHO-K1 Cell and Obtaining of Expressing Cell
The Cre-luc (Zeo) obtained in (3) and the plasmid hGLP-1/pIRESneo3 obtained in (5) transferred to the CHO-K1 cell to obtain a transformant. Subsequently, the cell line inducing the luciferase expression, hGLP-1R/CRE-luc/CHO-K1 cell, is selected from the obtained transformant by adding GLP-1.
The GLP-1R agonist activity is assayed in the same manner as above using the hGLP-1R/CRE-luc/CHO-K1 cell.

human GIPR = target: T1, human GIPR (Homo sapiens, UniProt P48546); test: Agonist activity on human GIPR, CRE-luciferase reporter assay (increase in intracellular cAMP as indicator); assay type: cell-based
T1 construct: expressed in transfected cells
T1 sequence (P48546 22-466): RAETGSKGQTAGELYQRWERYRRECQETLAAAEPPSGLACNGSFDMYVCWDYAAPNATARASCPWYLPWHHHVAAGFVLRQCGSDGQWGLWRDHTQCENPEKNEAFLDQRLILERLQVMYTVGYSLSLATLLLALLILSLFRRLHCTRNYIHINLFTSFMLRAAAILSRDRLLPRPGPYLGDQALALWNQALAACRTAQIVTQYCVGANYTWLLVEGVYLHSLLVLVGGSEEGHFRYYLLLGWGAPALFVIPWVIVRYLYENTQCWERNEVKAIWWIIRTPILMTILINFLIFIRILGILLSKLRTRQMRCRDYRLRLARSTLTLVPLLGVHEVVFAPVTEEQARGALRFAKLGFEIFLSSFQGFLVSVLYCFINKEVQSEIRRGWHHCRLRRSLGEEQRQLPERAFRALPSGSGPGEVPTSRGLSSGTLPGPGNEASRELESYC
Outline: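 CHO-K1 cells carrying CRE-luciferase and stably expressing human GIPR, 5×10^3 cells/well, exposed to compound for 4 hours at 37° C.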

Sequence of human GLP-1R (P43220 24-463): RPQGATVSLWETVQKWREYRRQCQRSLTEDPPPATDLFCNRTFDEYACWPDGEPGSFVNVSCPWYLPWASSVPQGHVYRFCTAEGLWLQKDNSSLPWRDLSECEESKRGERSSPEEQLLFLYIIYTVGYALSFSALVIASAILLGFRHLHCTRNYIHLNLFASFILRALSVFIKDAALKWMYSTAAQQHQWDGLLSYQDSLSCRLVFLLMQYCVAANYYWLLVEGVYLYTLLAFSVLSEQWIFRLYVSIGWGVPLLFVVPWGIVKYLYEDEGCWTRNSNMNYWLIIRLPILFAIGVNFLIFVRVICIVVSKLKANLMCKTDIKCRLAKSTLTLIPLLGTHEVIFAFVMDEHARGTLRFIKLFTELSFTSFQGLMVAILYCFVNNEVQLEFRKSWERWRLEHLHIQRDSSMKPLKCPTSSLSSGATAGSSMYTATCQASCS

CC[C@H](C)[C@H](NC(=O)[C@H](CC(C)C)NC(=O)[C@H](Cc1c[nH]c2ccccc12)NC(=O)[C@H](CCC(N)=O)NC(=O)[C@@H](NC(=O)[C@H](Cc1ccccc1)NC(=O)[C@H](C)NC(=O)[C@H](CCCNC(=N)N)NC(=O)[C@H](CCC(N)=O)NC(=O)[C@H](C)NC(=O)[C@@H](NC(=O)[C@H](CCCCN)NC(=O)[C@H](CC(=O)O)NC(=O)[C@H](CC(C)C)NC(=O)C(C)(C)NC(=O)[C@@H](NC(=O)[C@H](CO)NC(=O)[C@H](Cc1ccc(O)cc1)NC(=O)[C@H](CC(=O)O)NC(=O)[C@H](CO)NC(=O)[C@@H](NC(=O)[C@H](Cc1ccccc1)NC(=O)[C@@H](NC(=O)CNC(=O)[C@H](CCC(=O)O)NC(=O)C(C)(C)NC(=O)[C@@H](N)Cc1ccc(O)cc1)[C@@H](C)O)[C@@H](C)O)[C@@H](C)CC)[C@@H](C)CC)C(C)C)C(=O)N[C@@H](C)C(=O)NC(C)(C)C(=O)N[C@@H](CCCCN)C(=O)NCC(=O)N[C@@H](CCCCN)C(=O)N[C@@H](CCCCN)C(=O)N[C@@H](CCC(N)=O)C(=O)N[C@@H](CCC(=O)O)C(=O)N[C@@H](Cc1c[nH]c2ccccc12)C(=O)N[C@@H](CCCCN)C(=O)N[C@@H](Cc1c[nH]cn1)C(=O)N[C@@H](CCC(N)=O)C(=O)N[C@H](C(=O)N[C@H](C(=O)N[C@@H](CCC(N)=O)C(=O)N[C@@H](CCCCNC(C)=O)C(N)=O)[C@@H](C)O)[C@@H](C)CC [Compound 16] was tested, and the EC50 (human GLP-1R; read-out: GLP1R EC50 nM (B)) was under 0.02 nM, the EC50 (human GLP-1R; read-out: GLP1R pEC50 (converted)) was 0.017 nM and the “Selectivity Ratio (B/A)” value (human GIPR; GLP1R EC50 / GIPR EC50) was 20. It also gave an EC50 (human GIPR; hGIPR/CRE-LUC/CHO-K1 cells, 4 h incubation, read-out: GIPR pEC50 (converted)) of 0.001 nM.
